In PMC8434776 (Antiviral research, 2021):
Where two headings read alike, the source gives them in different places.

Assays:
[1] = target: T1, human cytochrome P450 51 (hCYP51) (Homo sapiens, UniProt Q16850); experiment: enzymatic assay, [[…]-3H]lanosterol conversion by purified hCYP51/CPR, radio-HPLC; format: biochemical
T1 sequence (Q16850 1-509): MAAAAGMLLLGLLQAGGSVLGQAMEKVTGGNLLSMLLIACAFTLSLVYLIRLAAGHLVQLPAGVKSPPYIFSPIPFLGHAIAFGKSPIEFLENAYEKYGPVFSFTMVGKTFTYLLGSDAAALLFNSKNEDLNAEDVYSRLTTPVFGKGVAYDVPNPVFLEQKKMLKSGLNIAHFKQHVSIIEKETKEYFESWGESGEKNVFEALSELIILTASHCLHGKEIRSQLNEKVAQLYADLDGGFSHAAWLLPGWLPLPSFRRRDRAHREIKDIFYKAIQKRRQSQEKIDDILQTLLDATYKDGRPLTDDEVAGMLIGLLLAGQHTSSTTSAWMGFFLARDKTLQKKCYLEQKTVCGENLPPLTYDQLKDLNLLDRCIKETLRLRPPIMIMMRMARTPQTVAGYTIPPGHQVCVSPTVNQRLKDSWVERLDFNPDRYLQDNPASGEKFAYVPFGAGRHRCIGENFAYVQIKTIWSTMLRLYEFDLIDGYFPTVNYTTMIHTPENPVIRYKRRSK

[2] = target: T1, human cytochrome P450 51 (hCYP51); experiment: as above; format: biochemical; remark: listed apart in the source

IC50 [1] | SMILES | IC50 [2]
50.5 µM | C[C@@H](c1nc(-c2ccc(C#N)cc2)cs1)[C@](O)(Cn1cncn1)c1cc(F)ccc1F [ICZ, isavuconazole] | 
 | CC[C@@H]([C@H](C)O)n1ncn(-c2ccc(N3CCN(c4ccc(OC[C@@H]5CO[C@@](Cn6cncn6)(c6ccc(F)cc6F)C5)cc4)CC3)cc2)c1=O [PCZ, posaconazole] | 8.3 µM
